# Results: paper PMC12165043, “Neophytadiene, a Plant Specialized Metabolite, Mediates the Virus‐Vector‐Plant Tripartite Interactions” (Advanced Science, 2025)
# “And” between values parts separate entries of the source, which are not always exact repeats. Equal entries are not always repeated.
# Assays:
# [1] = test system: Trialeurode vaporariorum; design: method as in PMID 35244166; conditions: ref [47]; cited from earlier work
# [2] = target: T1, BtOBP2 (Bemisia tabaci, UniProt A0A097BTY7); experiment: Fluorescence binding of the probe 1-NPN to recombinant BtOBP2; conditions: recombinant BtOBP2 2 µM, Scatchard analysis; read-out: binding constant (Kd) of 1-NPN to BtOBP2
# T1 sequence (A0A097BTY7 23-247): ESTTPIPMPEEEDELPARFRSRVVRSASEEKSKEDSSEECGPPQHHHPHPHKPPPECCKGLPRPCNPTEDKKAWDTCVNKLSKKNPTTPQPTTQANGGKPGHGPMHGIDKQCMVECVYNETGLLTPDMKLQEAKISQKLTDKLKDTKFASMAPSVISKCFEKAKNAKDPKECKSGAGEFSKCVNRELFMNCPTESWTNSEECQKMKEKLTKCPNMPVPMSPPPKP
# From the text: The specific primers for BtOBP2 were designed using Primer 5 software to amplify the coding sequence according to the Phanta Max Super‐Fidelity DNA Polymerase protocol. Target DNA fragments were purified and ligated into the pEASY‐Blunt cloning vector, and positive colonies were identified by PCR and sequenced. The cloned plasmid was ligated into the pET28a vector (Invitrogen, Waltham USA) following digestion with BamHI and SalI. The resulting construct was transformed into Rosetta (DE3) Escherichia coli competent cells. […] The target protein was verified by 10% SDS‐PAGE, and its concentration was determined with a BCA protein assay kit. […] The target protein was subjected to Coomassie blue staining and western blot validation through 10% SDS‐PAGE using anti His‐Tag antibody, and its concentration was determined using a BCA protein assay kit. […]
# The binding affinity of BtOBP2 to the fluorescent probe N‐phenyl‐1‐naphthyl‐amine (1‐NPN1) was determined using a FL7000 fluorescence spectrophotometer (Hitachi, Tokyo Japan). […] The optimal excitation and emission wavelengths of the recombinant protein BtOBP2 were determined, and the 1‐NPN/BtOBP2 mixture was excited at 220 nm with emission spectra recorded from 300 to 500 nm. The binding constants (Kd) of BtOBP2 to 1‐NPN were calculated by Scatchard analysis using Prism 5 software. […]
# [3] = test system: TYLCV; design: method as in PMID 36086899; conditions: ref [48]; cited from earlier work
# [4] = test system: Bemisia tabaci whiteflies; experiment: Whitefly preference for neophytadiene after RNA interference (dsGFP, dsBtOBP2, dsOBP3); conditions: for preference (whiteflies choosing Neophytadiene): Neophytadiene versus CK, single replicates; for preference (whiteflies choosing Neophytadiene) / preference (whiteflies choosing Neophytadiene), mean: Fig 7D; for preference (whiteflies choosing Neophytadiene), mean: unlabelled last row = mean of the 9 replicates
# [5] = test system: BtOBP1-8 genes; experiment: Transcriptional response of BtOBP1-8 to neophytadiene (qRT-PCR); type: in vivo, Bemisia tabaci
# Method: RNA was extracted using trizol reagent (Invitrogen, Waltham USA) and dissolved in double‐deionized water; cDNA was synthesized from total RNA (1 µg) using HiScript 1st Strand cDNA Synthesis kit (Vazyme, Nanjing China). Real‐time qPCR was conducted using the MonAmp SYBR Green qPCR Mix (Thermofisher, Waltham USA). Actin and UBI were selected as the housekeeping genes (Table S1, Supporting Information). Each experiment was repeated at least three times and relative gene expression levels calculated for analysis using the 2^−∆∆Ct method.
# To investigate the expression profiles of BtOBP1‐8 genes in B. tabaci under neophytadiene treatment, the following experiment was performed. Tomato plants with an identical growth cycle were selected as the treatment group (sprayed with 3 µg g^−1 neophytadiene) and the control group (treated with water only). The treated plants were then placed in a 10 L hermetic container. Once the volatilization reached equilibrium, 500 pairs of adults were introduced into the closed container and fumigated under airtight conditions. Subsequently, the whiteflies were sampled at distinct time points (0, 24, 48, 72, 96 h) respectively for the determination of expression levels.
# [6] = target: T1, BtOBP2; experiment: Fluorescence competitive binding assay (displacement of 1-NPN from BtOBP2); conditions: mean ± SEM; for IC50: BtOBP2 2 µM, ligand 2 to 20 µM, read-out: IC50, ligand concentration displacing 50% of the fluorescence intensity of the BtOBP2/1-NPN complex; for Ki: Ki = [IC50]/(1 + [1-NPN]/K1-NPN), read-out: Ki, dissociation constant
# From the text: The specific primers for BtOBP2 were designed using Primer 5 software to amplify the coding sequence according to the Phanta Max Super‐Fidelity DNA Polymerase protocol. Target DNA fragments were purified and ligated into the pEASY‐Blunt cloning vector, and positive colonies were identified by PCR and sequenced. The cloned plasmid was ligated into the pET28a vector (Invitrogen, Waltham USA) following digestion with BamHI and SalI. The resulting construct was transformed into Rosetta (DE3) Escherichia coli competent cells. When the OD600 of the recombinant BtOBP2 reached 0.6 to 0.8, induction was initiated by adding isopropyl‐β‐D‐1‐thiogalactopyranoside (IPTG) (1 mM) at 16 °C for 16 h, followed by purification using the Ni‐NTA purification system.^[ [59] ^] The target protein was verified by 10% SDS‐PAGE, and its concentration was determined with a BCA protein assay kit. The recombinant purified protein was stored at −80 °C until use. The target protein was subjected to Coomassie blue staining and western blot validation through 10% SDS‐PAGE using anti His‐Tag antibody, and its concentration was determined using a BCA protein assay kit. The purified recombinant protein was stored at −80 °C.
# The binding affinity of BtOBP2 to the fluorescent probe N‐phenyl‐1‐naphthyl‐amine (1‐NPN1) was determined using a FL7000 fluorescence spectrophotometer (Hitachi, Tokyo Japan). Ligands and 1‐NPN were dissolved in HPLC‐grade methanol to a concentration of 1 mM, and then titrated with BtOBP2 (2 µM) to final concentrations ranging from 2 to 20 µM.^[ [60] ^] The optimal excitation and emission wavelengths of the recombinant protein BtOBP2 were determined, and the 1‐NPN/BtOBP2 mixture was excited at 220 nm with emission spectra recorded from 300 to 500 nm. The binding constants (Kd) of BtOBP2 to 1‐NPN were calculated by Scatchard analysis using Prism 5 software. The IC50 represents the concentration at which 50% of the probe was displaced by the ligand. The Ki values were calculated according to the following equation: Ki = [IC50]/(1 + [1‐NPN]/K1‐NPN), where [1‐NPN] is the free concentration of 1‐NPN, and K1‐NPN is the Kd of the 1‐NPN/BtOBP2 complex.^[ [61] ^]
# [7] = test system: Bemisia tabaci whiteflies; experiment: Y-tube olfactory choice assay, volatile standard versus solvent control; type: in vivo; conditions: for Whitefly preference for plant volatiles versus control (solvent only): number of whiteflies in the volatile arm: Fig 1F raw data, individual replicates (n = 9), 100 whiteflies released, counted for 20 min; for impact of volatile on whitefly preference: Y-tube, volatile standard versus solvent control, n = 9, result in words
# Method: Y‐tube preference assays were conducted as per Shi et al.^[ [51] ^] with an air flow of 100 mL min^−1. A volatile standard (Sigma Aldrich, USA) and control (solvent) were placed in glass containers at either end of the Y‐tube and 100 whiteflies were released at the Y‐tube base. The number of whiteflies moving more than 5 cm into the Y‐tube arm and remaining there for at least 15 s was counted for 20 min. There were nine replicates per volatile for each of the eight volatile compounds.
# [8] = test system: Bemisia tabaci whiteflies; experiment: Whole-plant preference test, OELhca4 tomato plants sprayed with neophytadiene or water; type: in vivo
# Method: Tests were conducted as per Shi et al.^[ [49] ^] with slight modifications. ToCV‐infected or control (mock‐inoculated) tomato plants were used for preference tests in screened cages. A second set of preference tests was also conducted using OELhca4 (Lhca4 overexpressed) tomato plants sprayed either with neophytadiene (3 µg g^−1 in water) or water only (control). Each cage contained two plants placed 40 cm apart. Under dim light, about 100 whiteflies that had been starved for 2 h were released above the center of the two plants and the whiteflies on each plant counted after 48 h. Each of the two preference tests (ToCV‐infected versus uninfected plants; OELhca4 plants sprayed with either neophytadiene or water) was replicated nine times.
# [9] = test system: whiteflies; design: method as in PMID 31842757; conditions: ref [18]; cited from earlier work
compound,measurement,setting,value
"CC12CCC(CC1)C(C)(C)O2 [1, 8‐cineole]",effect on settling of whitefly on an otherwise-preferred tomato cultivar,[1],repelled
"c1ccc(Nc2cccc3ccccc23)cc1 [1‐NPN, N‐Phenyl‐1‐naphthylamine]",Kd,[2],2.94 ± 0.08 µM
CC/C=C\CCO [(Z)‐3‐hexenol],effect on tomato defense against infection by whitefly-transmitted TYLCV,[3],improves tomato defense
C=CC(=C)CCCC(C)CCCC(C)CCCC(C)C (stereo not shown) [Neophytadiene],preference for neophytadiene of BtOBP2-silenced (dsOBP2) whiteflies,"[4]; after RNA interference of BtOBP2, n = 9",no preference
same,preference for neophytadiene of BtOBP3-silenced (dsOBP3) whiteflies,"[4]; after RNA interference of BtOBP3, n = 9",still exhibited preference
same,preference (whiteflies choosing Neophytadiene),[4]; dsGFP-treated whiteflies,95 and 86 and 80 and 93 and 85 and 88 and 79 and 90
same,"preference (whiteflies choosing Neophytadiene), mean",[4]; dsGFP-treated whiteflies,87.6667
same,preference (whiteflies choosing Neophytadiene),[4]; dsOBP2-treated whiteflies,36 and 41 and 48 and 46 and 42 and 58 and 59 and 45
same,"preference (whiteflies choosing Neophytadiene), mean",[4]; dsOBP2-treated whiteflies,46.3333
same,OBP1 relative expression,"[5]; 24h, Fig 7A",1.5096 and 1.0333 and 1.7792
same,OBP2 relative expression,"[5]; 24h, Fig 7A",2.314 and 1.938 and 1.255
same,OBP3 relative expression,"[5]; 24h, Fig 7A",2.295 and 2.274 and 2.135
same,OBP4 relative expression,"[5]; 24h, Fig 7A",1.915 and 1.067 and 1.378
same,OBP5 relative expression,"[5]; 24h, Fig 7A",0.9141 and 1.109 and 1.357
same,OBP7 relative expression,"[5]; 24h, Fig 7A",0.4368 and 0.5508 and 0.2972
same,OBP1 relative expression,"[5]; 48h, Fig 7A",0.9445 and 0.6245 and 1.003
same,OBP2 relative expression,"[5]; 48h, Fig 7A",3.877 and 2.855 and 4.158
same,OBP3 relative expression,"[5]; 48h, Fig 7A",2.98 and 1.807 and 1.705
same,OBP4 relative expression,"[5]; 48h, Fig 7A",1.105 and 0.8073 and 0.7508
same,OBP7 relative expression,"[5]; 48h, Fig 7A",0.7647 and 0.5685 and 0.6675
same,OBP4 relative expression,"[5]; 72h, Fig 7A",0.7926 and 1.238 and 0.8444
same,OBP6 relative expression,"[5]; 72h, Fig 7A",0.6207 and 0.9359 and 1.164
same,OBP3 relative expression,"[5]; 96h, Fig 7A",2.791 and 2.514 and 4.498
same,OBP4 relative expression,"[5]; 96h, Fig 7A",1.221 and 0.8392 and 1.362
same,OBP6 relative expression,"[5]; 96h, Fig 7A",0.4452 and 0.8016 and 0.4814
same,OBP7 relative expression,"[5]; 96h, Fig 7A",0.7369 and 0.9206 and 0.9224
same,OBP8 relative expression,"[5]; 96h, Fig 7A",0.9529 and 0.9384 and 0.8486
same,relative gene expression of BtOBP1-8 following neophytadiene exposure,"[5]; continuous release for 96 h, measured every 24 h","Only two genes, BtOBP2 and BtOBP3, increased their expression over time"
same,IC50,[6],7.95 ± 0.45 µM
same,Whitefly preference for plant volatiles versus control (solvent only): number of whiteflies in the volatile arm,[7],86 and 89 and 65 and 80 and 52 and 100 and 48
same,impact of volatile on whitefly preference,[7],attracted B. tabaci
same,preference (whiteflies on plant),"[8]; OELhca4+Neophytadiene versus OELhca4, Fig 5J, single replicates",80 and 70 and 78 and 72 and 60 and 66 and 76 and 73
same,Whitefly preference for neophytadiene-sprayed versus water-sprayed OELhca4 plants,"[8]; neophytadiene 3 µg g^−1 in water, whiteflies counted after 48 h, n = 9",attracted more whiteflies
same,attraction of whiteflies,[9],highly attractive to whiteflies
C=C(C)[C@H]1CC=C(C)CC1 [limonene],effect on settling of whitefly on an otherwise-preferred tomato cultivar,[1],repelled
CC1=CCC2CC1C2(C)C (stereo not drawn) [α‐pinene],IC50,[6],14.6 ± 0.57 µM
same,Ki,[6],10.9 ± 0.43 µM
same,Whitefly preference for plant volatiles versus control (solvent only): number of whiteflies in the volatile arm,[7],23 and 24 and 30 and 26 and 17 and 40 and 21 and 6 and 43
same,impact of volatile on whitefly preference,[7],significantly repelled whiteflies
CC1=CC=C(C(C)C)CC1 [α‐terpinene],IC50,[6],20.4 ± 1.29 µM
same,Ki,[6],15.2 ± 0.96 µM
same,Whitefly preference for plant volatiles versus control (solvent only): number of whiteflies in the volatile arm,[7],9 and 19 and 28 and 37 and 36 and 43
same,impact of volatile on whitefly preference,[7],significantly repelled whiteflies
C=C1CC/C=C(\C)CC[C@@H]2[C@@H]1CC2(C)C [β‐caryophyllene],IC50,[6],14.2 ± 0.72 µM
same,Ki,[6],10.6 ± 0.54 µM
same,Whitefly preference for plant volatiles versus control (solvent only): number of whiteflies in the volatile arm,[7],41 and 20 and 16 and 6 and 19 and 27 and 31 and 10 and 39
same,impact of volatile on whitefly preference,[7],significantly repelled whiteflies
C=C1C=CC(C(C)C)CC1 (stereo not drawn) [β‐phellandrene],IC50,[6],25.4 ± 3.39 µM
same,Ki,[6],19 ± 2.53 µM
same,Whitefly preference for plant volatiles versus control (solvent only): number of whiteflies in the volatile arm,[7],34 and 28 and 40 and 32 and 46 and 20 and 36 and 43 and 14
same,impact of volatile on whitefly preference,[7],significantly repelled whiteflies
C=C1CCC2CC1C2(C)C (stereo not drawn) [β‐pinene],IC50,[6],13.7 ± 0.51 µM
same,Ki,[6],10.2 ± 0.38 µM
same,Whitefly preference for plant volatiles versus control (solvent only): number of whiteflies in the volatile arm,[7],12 and 26 and 37 and 29 and 28 and 24 and 10 and 31 and 15
same,impact of volatile on whitefly preference,[7],significantly repelled whiteflies
Cc1ccc(C(C)C)cc1 [ρ‐cymene],IC50,[6],16.3 ± 0.49 µM
same,Ki,[6],12.1 ± 0.36 µM
same,Whitefly preference for plant volatiles versus control (solvent only): number of whiteflies in the volatile arm,[7],10 and 20 and 17 and 26 and 18 and 25 and 27 and 23
same,impact of volatile on whitefly preference,[7],significantly repelled whiteflies
same,effect on settling of whitefly on an otherwise-preferred tomato cultivar,[1],repelled
phytol,IC50,[6],26.1 ± 1.48 µM
same,Ki,[6],19.5 ± 1.1 µM
same,Whitefly preference for plant volatiles versus control (solvent only): number of whiteflies in the volatile arm,[7],58 and 50 and 60 and 24 and 48 and 27 and 44 and 38
same,impact of volatile on whitefly preference,[7],did not influence whitefly preference
